Results published in patent US12290521B2, “Methods and materials for identifying and treating BET inhibitor-resistant cancers” (Mayo Foundation for Medical Education and Research, priority 2018, dated 2025).
Residues, ends and D or L forms follow the SMILES beside them. *: point of attachment. Cbz = O=C(OCc1ccccc1)*

Legend:
[1] = system: C4-2 xenograft tumors; experiment: Prostate cancer xenografts in NSG mice; type: in vivo; details: SPOP-F133V C4-2 xenografts; GDC-0068 100 mg/kg with JQ1 50 mg/kg, 5 days a week, day 21
Description: 6-week-old NOD-SCID IL-2-receptor gamma null (NSG) mice were generated and randomly divided into different experimental groups as indicated. All mice were housed in standard conditions with a 12-hour light/dark cycle and access to food and water ad libitum. For BRD2/3/4 knockdown studies, C4-2 cells (5×10^6), infected with lentivirus expressing empty vector (EV) or HA-SPOP-F133V mutant in combination with control shRNA or BRD2/3/4-specific shRNA, were mixed with Matrigel (in 100 μL 1×PBS plus 100 μL Matrigel (BD Biosciences)) and injected s.c. into the right flank of mice. After xenografts reached the size of about 100 mm^3, vehicle (10% beta cyclodextrin) or JQ1 (Sigma-Aldrich) at 50 mg/kg body weight was administered by i.p. injection 5 days a week. For studies with tumors treated with JQ1 and AKT inhibitor GDC-0068, C4-2 cells (5×10^6) infected with lentivirus expressing empty vector (EV) or HA-SPOP-F133V mutant were mixed with Matrigel (in 100 μL 1×PBS plus 100 μL Matrigel (BD Biosciences)) and injected s.c. into the right flank of mice. […] Growth in tumor volume was measured in a blinded fashion using digital caliper, and tumor volumes were estimated using the formula (L×W2)/2, where L is length of tumor and W is width. The volumes of tumors were compared, and P values were determined by a two-tailed Student's t test. […]

[2] = system: C4-2 cells; experiment: Western blot and RT-qPCR of protein and mRNA expression in C4-2 cells; type: cell-based, human; details: 24 hours
Description: (§1) Cell lysates or immunoprecipitates were subjected to SDS-PAGE, and proteins were transferred to nitrocellulose membranes (GE Healthcare Sciences). The membranes were blocked in Tris-buffered saline (TBS, pH 7.4) containing 5% non-fat milk and 0.1% Tween-20, washed twice in TBS containing 0.1% Tween-20, and incubated with primary antibody overnight at 4° C., followed by secondary antibody for 1 hour at room temperature. The proteins of interest were visualized using ECL chemiluminescence system (Santa Cruz Biotechnology). Densitometry analysis of protein bands was analyzed on the Gel-Pro Analyzer software.
(§2) Total RNA was isolated from transiently transfected cells using the Trizol reagent (Thermo Fisher Scientific), and cDNA was reverse-transcribed using the Superscript RT kit (TOYOBO, Japan) according to the manufacturer's instructions. PCR amplification was performed using the SYBR Green PCR master mix Kit (TOYOBO, Japan). All quantization was normalized to the level of endogenous control GAPDH. The primer sequences for the SYBR green qPCR used were as follows: BRD2-F: 5′-[…]-3′ (SEQ ID NO:10); BRD2-R: 5′-[…]-3′ (SEQ ID NO:11); BRD3-F: 5′-[…]-3′ (SEQ ID NO:12); BRD3-R: 5′-[…]-[…]-3′ (SEQ ID NO:13); BRD4-F: 5′-[…]-GAG-3′ (SEQ ID NO:14); BRD4-F: 5′-[…]-3′ (SEQ ID NO: 15); RAC1-F: 5′-[…]-3′ (SEQ ID NO:16); RAC1-R: 5′-[…]-3′ (SEQ ID NO:17); FDFT1-F: 5′-ACTAT-[…]-3′ (SEQ ID NO:18); FDFT1-R: 5′-[…]-[…]-3′ (SEQ ID NO:19); DHCR24-F: 5′-[…]-GAGC-3′ (SEQ ID NO:20); DHCR24-R: 5′-[…]-3′(SEQ ID NO:21); DHCR7-F: 5′-[…]-3′ (SEQ ID NO: 22); DHCR7-R: 5′-[…]-3′ (SEQ ID NO:23); MVD-F: 5′-[…]-3′ (SEQ ID NO:24); MVD-R: 5′-CACAC-[…]-3′ (SEQ ID NO:25); PSA-F: 5′-[…]-[…]-3′ (SEQ ID NO:26); PSA-R: 5′-[…]-3′ (SEQ ID NO:27); TMPRSS2-F: 5′-[…]-3′ (SEQ ID NO: 28); TMPRSS2-R: 5′-[…]-3′ (SEQ ID NO:29); MYC-F: 5′-[…]-3′ (SEQ ID NO:30); MYC-R: 5′-CTTGT-[…]-3′ (SEQ ID NO:31); AR-F: 5′-[…]-TCACC-3′ (SEQ ID NO:32); AR-R: 5′-[…]-3′ (SEQ ID NO: 33); GAPDH-F: 5′-[…]-3′ (SEQ ID NO:34); and GAPDH-R: 5′-[…]-3′ (SEQ ID NO:35).
(§3) Cells were harvested and lysed by IP buffer (50 mM Tris-HCl, pH 7.4, 150 mM NaCl, 1% Triton X-100, 1% sodium deoxycholate and 1% protease inhibitor cocktails) on ice for more than 15 minutes. Cell lysate was centrifuged for 15 minutes at 13,000 rpm at 4° C., and the supernatant was quantified by BCA protein quantification assay. Equal amounts of protein sample were added into 4× sample buffer and boiled for 5 minutes. The sample was subjected to SDS-PAGE analysis and transferred to nitrocellulose membrane. The membrane was blocked by 5% milk for 1 hour at room temperature and incubated with primary antibody at 4° C. overnight. The next day, the membrane was washed three times with 1×TBST and incubated with horseradish peroxidase-conjugated secondary antibodies for 1 hour at room temperature. The protein bands were visualized by SuperSignal West Pico Stable Peroxide Solution (Thermo Fisher Scientific).
Total RNA was isolated using TRIzol reagent (Thermo Fisher Scientific). The NanoDrop 2000 spectrophotometer (Thermo Fisher Scientific) was used to assess RNA yield and quality. RNA was reversely transcribed using Superscript II reverse transcriptase (Thermo Fisher Scientific) following manufacturer's instructions. Quantitative real-time PCR was performed by mixing cDNA, gene-specific primers and IQ SYRB Green Supermix and detected by iCycler QTX detection system (Bio-Rad). The 2-ΔCt method was used to quantitate fold changes by normalizing to GAPDH.

[3] = system: C4-2 cells; experiment: Cell proliferation assay (MTS) and trypan blue assay; type: cell-based, human; details: SPOP-F133V C4-2 cells; GDC-0068 0.2 μM with JQ1 0.25 μM, 5 days
Description: CellTiter 96® AQueous One Solution Cell Proliferation Assay (MTS) (Promega) was used to measure cell growth according to the manufacturer's instructions. Briefly, cells were plated in 96-well plates at a density of 2,000 cells per well. At the indicated times, 20 μL of Cell Titer 96R Aqueous One Solution Reagent was added to medium. After incubating for 1 hour at 37° C. in the cell incubator, cell growth was measured in a microplate reader at 490 nm.
Trypan blue assay was performed to measure cell growth according to the manufacturer's instructions. Briefly, cells were plated in 6-well plates at a density of about 5×10^4 to about 1×10^5 cells per well. At the indicated time points, cells were trypsinized and suspended in 1 mL 1×PBS. 100 μL cells and 100 μL trypan blue solution (Sigma-Aldrich) were mixed, and the number of viable cells was measured using the Bio-Rad automated cell counter.
Cell proliferation was measured by using the MTS assay (Promega). Prostate cancer cells (2,000 per well) were seeded in 96-well plates with 100 μL of culture medium. Each well was added with 20 μL of CellTiter 96R AQueous One Solution Reagent (Promega) and absorbance was measured in a microplate reader at 490 nm.

[4] = system: solid tumors; details: patients with solid tumors; cited from earlier work
[5] = system: BRD2/3/4; experiment: Western blot and RT-qPCR of BRD2/3/4 in LNCaP cells; type: cell-based; details: 8 hours, MLN4924 200 nM, Bortezomib 200 nM, MG132 20 μM
Description: as §1, §2

[6] = system: SPOP and BRD2/3/4; experiment: Western blot, co-IP and in vivo ubiquitination assay in 293T cells; type: cell-based, human; details: MG132 20 μM, 8 hours
Description: To immunoprecipitate the ectopically expressed FLAG-tagged proteins, transfected cells were lysed 24 hours post-transfection in BC100 buffer. The whole-cell lysates were immunoprecipitated with the monoclonal anti-FLAG antibody-conjugated M2 agarose beads (Sigma-Aldrich) at 4° C. overnight. After three washes with lysis buffer, followed by two washes with BC100 buffer, the bound proteins were eluted using FLAG-Peptide (Sigma-Aldrich) prepared in BC100 for 3 hours at 4° C. The eluted protein sample was resolved by SDS-PAGE. To immunoprecipitate the endogenous proteins, cells were lysed with 1× cell lysis buffer (Cell Signaling Technology), and the lysate was centrifuged. The supernatant was precleared with protein A/G beads (Sigma-Aldrich) and incubated with the indicated antibody and protein A/G beads at 4° C. overnight. Beads were washed five times with lysis buffer and resuspended in sample buffer and analyzed by SDS-PAGE.
as §1
For the in vivo ubiquitination assay, C4-2 cells were transfected with plasmids for HA-Ub, FLAG-BRD4, and other indicated proteins. C ells were treated with 20 μM MG132 for 8 hours before being harvested and lysed with lysis buffer (50 mM Tris-HCl, pH 7.5, 150 mM NaCl, 1% NP40, 0.5% sodium deoxycholate, 1× protease inhibitor cocktail (PIC)). The lysate was subjected to co-immunoprecipitation using anti-FLAG-conjugated agarose beads as described in the Co-IP assay.

[7] = system: BRD4; experiment: Western blot of BRD4 protein, ubiquitination and half-life in DU145 cells; type: cell-based, human
Description: Co-Immunoprecipitation (Co-IP) Cells were harvested and lysed by IP buffer (50 mM Tris-HCl, pH 7.4, 150 mM NaCl, 1% Triton X-100, 1% sodium deoxycholate and 1% protease inhibitor cocktails) on ice for more than 15 minutes. Cell lysate was centrifuged for 15 minutes at 13,000 rpm at 4° C., and the supernatant was incubated with primary antibodies and protein A/G agarose beads (Thermo Fisher Scientific) with rotating at 4° C. overnight. The next day, the pellet was washed at least six times with 1×IP buffer on ice, and then subjected to western blotting analysis. Western Blotting
as §3

[8] = system: BRD4; experiment: Western blot of BRD4 protein in PC-3 cells; type: cell-based, human; details: MG132, 8 h
Description: as §3

[9] = DU145 cells, PD0332991 2 μM, 24 hours
[10] = DU145 cells, PD0332991 with JQ1, 24 hours

Compound: CC(C)NC[C@@H](C(=O)N1CCN(c2ncnc3c2[C@H](C)C[C@H]3O)CC1)c1ccc(Cl)cc1 [GDC-0068]
- SPOP mutation-conferred resistance to BET inhibitor, tumors in mice [1]: completely overcame
- SPOP mutation-induced activation of AKT downstream pathways ([2]; SPOP-F133V C4-2 cells, GDC-0068 1 μM, Western blot): abolished
- SPOP mutation-conferred resistance to BET inhibitor, cells in culture [3]: completely overcame
- antitumor efficacy [4]: effective antitumor efficacy

Compound: NS(=O)(=O)OC[C@@H]1C[C@@H](n2ccc3c(N[C@H]4CCc5ccccc54)ncnc32)C[C@@H]1O [MLN4924]
- BRD2/3/4 protein level [5]: accumulation

Compound: CC(C)C[C@@H](C=O)NC(=O)[C@H](CC(C)C)NC(=O)[C@H](CC(C)C)NC(=O)OCc1ccccc1 [MG132] (Cbz-Leu-Leu-Leu-aldehyde)
- decrease of BRD2/3/4 proteins by wild-type SPOP expression [6]: completely reversed
- PD0332991-induced decrease of BRD4 protein ([7]; DU145 cells, 24 hours, co-treatment with MG132): completely impeded
- decrease of BRD4 protein levels by DUB3 knockdown ([7]; SPOP F133V-expressing DU145 cells, MG132, 8 hours): blocked
- BRD2/3/4 protein level [5]: increased
- downregulation of BRD4 proteins caused by DUB3 knockdown [8]: reversed

Compound: CC(C)C[C@H](NC(=O)[C@H](Cc1ccccc1)NC(=O)c1cnccn1)B(O)O [Bortezomib]
- BRD2/3/4 protein level [5]: increased

Compound: CC(/C=C/C(=O)NO)=C\[C@@H](C)C(=O)c1ccc(N(C)C)cc1 [trichostatin A]
- DUB3 protein and mRNA expression ([2]; C4-2 cells, TSA 1 μM): increased

Compound: CC(=O)c1c(C)c2cnc(Nc3ccc(N4CCNCC4)cn3)nc2n(C2CCCC2)c1=O [PD0332991, 6-acetyl-8-cyclopentyl-5-methyl-2-[(5-piperazin-1-ylpyridin-2-yl)amino]pyrido[2,3-d]pyrimidin-7-one]
- BRD4 protein expression in DUB3 knockdown cells ([7]; DU145 cells, DUB3 shRNA, PD0332991 2 μM, 24 hours): little or no further reduction
- BRD4 polyubiquitination [7, 9]: increased
- DUB3-induced upregulation of BRD4 protein [7, 9]: completely blocked
- DUB3-mediated deubiquitination of BRD4 [7, 9]: reversed
- BRD4 protein ([7]; DU145 cells, PD0332991 2 μM, time-dependent): decreased
- JQ1-induced inhibition of BRD4 polyubiquitination [7, 10]: almost completely reversed
- JQ1-induced upregulation of BRD4 protein [7, 10]: almost completely abolished
